Assay results: US20190092792A1, “VINORELBINE MONOTARTRATE AND ITS PHARMACEUTICAL USE” (priority 2016, published 2019)
Like-named read-outs stand apart in the source and are kept apart here.

Legend:
[1] = xenon lamp 300-800 nm
Experimental: The term “photostability”, as used herein, is to be understood such that a sample of the product to be analyzed in a quantity of about 14 mg is placed in a 10 ml light glass volumetric flask and is exposed in a photo chamber to a xenon lamp (wave length 300-800 nm; fluence rate 250-765 W/m2). The amount of the known photo-degradation product 3,6-epoxy vinorelbine is determined after a specific amount of time of exposure by means of HPLC (High-performance liquid chromatography). The described photostability test procedure corresponds to the photostability determining method described in European Pharmacopoeia 7.0 using exposure time 2 hours.
Furthermore, a comparative photo-degradation analysis of crystalline vinorelbine monotartrate hydrate, according to the present invention and vinorelbine bitartrate was performed.
The samples (about 14 mg each) were placed in 10 ml light glass volumetric flasks and exposed in a photo chamber to a xenon lamp (wave length 300-800 nm; fluence rate 250-765 W/m^2). The amount of the known photo-degradation product 3,6-epoxy vinorelbine was determined at various time points by means of HPLC.

[2] = Comparable stressing stability study at 60° C. (total degradation impurities by HPLC); format: physicochemical; conditions: for Total degradation impurities: 60° C.
Experimental: (§1) The degradation impurities are determined after a specific amount of time of incubation by means of HPLC.
(§2) The term “degradation impurities”, as used herein, is to be understood such a sample of the relevant product is subjected to HPLC analysis and calculation of the content of impurities in Vinorelbine is performed according to the method described in European Pharmacopoeia 7.0.
(§3) HPLC analysis and calculation of the content of impurities in Vinorelbine were performed according to the method described in European Pharmacopoeia 7.0.

[3] = Thermostability of vinorelbine monotartrate solid forms at 5° C., 25° C. and 40° C. (degradation impurities by HPLC); format: physicochemical; conditions: for Degradation products (%) 3,6-epoxy vinorelbine / Degradation products (%) Total / Degradation products (%) vinorelbine N-oxide: amorphous form, 40° C.
Experimental: as §1, §2
The term “degradation”, as used herein, is to be understood to relate to the total amount of identified (e.g. 3,6-epoxy vinorelbine, 4-O-deacetylvinorelbine and vinorelbine N-oxide) and unidentified degradation products that form in a sample after a particular incubation period.
as §3
Three further representative batches of crystalline vinorelbine monotartrate acetone solvate being produced according to Example 1 were analyzed for stability (i.e. batches no. 011213, no. 021213, and no. 010414). The samples were exposed to temperatures of 5° C. and 25° C. for three and six months, respectively. Batch no. 010414 was also exposed to a temperature of 40° C. (at 60%±2% relative humidity) for 15 days, 1 month, and two months, respectively.
Crystalline vinorelbine monotartrate hydrate being produced according to Example 5 were analyzed for stability. The samples were exposed to temperatures of 25° C. and 40° C. for three and six months, respectively.
In order to evaluate the thermostability and photostability of the compound the sample was exposed to a temperature of 40° C. for 2 weeks analyzed by HPLC.

Compound	Photodegradation product (3,6-epoxy vinorelbine), % ([1]; exposure 0 min)	Total impurities (excluding photodegradation product), % ([1]; exposure 0 min)	Photodegradation product (3,6-epoxy vinorelbine), % ([1]; exposure 15 min)	Total impurities (excluding photodegradation product), % ([1]; exposure 15 min)	Photodegradation product (3,6-epoxy vinorelbine), % ([1]; exposure 30 min)	Total impurities (excluding photodegradation product), % ([1]; exposure 30 min)	Photodegradation product (3,6-epoxy vinorelbine), % ([1]; exposure 60 min)	Total impurities (excluding photodegradation product), % ([1]; exposure 60 min)	Photodegradation product (3,6-epoxy vinorelbine), % ([1]; exposure 120 min)	Total impurities (excluding photodegradation product), % ([1]; exposure 120 min)	Total degradation impurities ([2]; 1 week)	further results
CCC1=C[C@@H]2CN(C1)Cc1c([nH]c3ccccc13)[C@@](C(=O)OC)(c1cc3c(cc1OC)N(C)[C@H]1[C@@](O)(C(=O)OC)[C@H](OC(C)=O)[C@]4(CC)C=CCN5CC[C@]31[C@@H]54)C2.O=C(O)C(O)C(O)C(=O)O.O=C(O)C(O)C(O)C(=O)O [vinorelbine bitartrate, reference compound]	0.05%	0.10%	0.16%	0.10%	0.24%	0.16%	0.35%	0.20%	0.72%	0.27%	9.8%	–
vinorelbine monotartrate [amorphous vinorelbine monotartrate]	–	–	–	–	–	–	–	–	–	–	–	Degradation products (%) 3,6-epoxy vinorelbine ([3]; 15 days): 0.13%; Degradation products (%) Total ([3]; 15 days): 1.08%; Degradation products (%) vinorelbine N-oxide ([3]; 15 days): 0.33%; Degradation products (%) 3,6-epoxy vinorelbine ([3]; initial): LT 0.05%; Degradation products (%) Total ([3]; initial): 0.13%; Degradation products (%) vinorelbine N-oxide ([3]; initial): LT 0.05%; stability (in words) ([3]; exposure to elevated temperature and humidity for an extended period): unstable; degradation (in words) ([3]; incubation for two weeks at 40° C.): significant degradation
vinorelbine monotartrate acetone solvate	–	–	–	–	–	–	–	–	–	–	LT 0.05%	degradation (in words) ([3]; six months storage at 5° C.+3° C.): almost no degradation; degradation (in words) ([3]; six months storage at 25° C.±2° C.): almost no degradation; degradation (in words) ([3]; two months storage at 40° C.): only minimal degradation; Total degradation impurities ([2]; 3 weeks): 0.08%; Total degradation impurities ([2]; 8 weeks): 0.24%; chemical degradation (in words) ([2]; one week storage at 60° C.): didn't show any chemical degradation
vinorelbine monotartrate hydrate	0.03%	0.10%	0.08%	0.10%	0.14%	0.10%	0.28%	0.10%	0.44%	0.17%	–	overall accumulation of degradation impurities ([3]; after 6 months at 25° C.): ≤ 0.02%; overall accumulation of degradation impurities ([3]; after 6 months at 40° C.): ≤ 0.15%; thermostability, degradation ([2]; one week storage at 60° C.): less than 0.10%
